Results taken from US10155259B2 (Merck Sharp & Dohme B.V., priority 2011, dated 2018).

Biological target: T1, human FSH receptor (Homo sapiens, UniProt P23945)
T1 construct: expressed in transfected cells; host or cells: CHO cells, stably transfected; cotransfected with CRE-luciferase reporter
T1 sequence (P23945 18-695): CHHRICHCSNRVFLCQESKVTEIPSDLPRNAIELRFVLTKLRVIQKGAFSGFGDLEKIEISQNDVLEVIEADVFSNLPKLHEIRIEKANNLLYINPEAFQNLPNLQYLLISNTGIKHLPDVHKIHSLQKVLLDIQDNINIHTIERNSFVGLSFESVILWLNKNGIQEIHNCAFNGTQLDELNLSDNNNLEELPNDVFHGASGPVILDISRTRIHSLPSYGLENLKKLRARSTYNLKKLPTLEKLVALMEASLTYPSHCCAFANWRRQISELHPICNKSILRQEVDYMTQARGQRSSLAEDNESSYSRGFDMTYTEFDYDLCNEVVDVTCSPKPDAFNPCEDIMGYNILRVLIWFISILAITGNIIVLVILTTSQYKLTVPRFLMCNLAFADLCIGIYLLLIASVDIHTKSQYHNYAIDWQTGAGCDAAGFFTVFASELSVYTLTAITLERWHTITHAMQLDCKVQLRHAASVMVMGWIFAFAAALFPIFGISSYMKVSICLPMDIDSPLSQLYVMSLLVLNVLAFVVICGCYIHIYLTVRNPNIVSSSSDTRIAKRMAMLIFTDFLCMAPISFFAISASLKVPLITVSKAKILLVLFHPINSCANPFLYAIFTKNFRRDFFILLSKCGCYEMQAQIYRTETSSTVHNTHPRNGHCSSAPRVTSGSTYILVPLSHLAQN
Assay: Antagonistic activity of compounds at the human FSH receptor expressed in CHO cells (CRE-luciferase reporter)
Type: cell-based
Settings: CHO cells stably transfected with human FSH receptor and CRE/luciferase reporter; together with 49 μM recFSH; 4 hours incubation; 1% DMSO; read-out: IC50 (concentration of test compound causing half-maximal inhibition of the maximally attainable inhibition of the luciferase stimulation)
Experimental: Antagonistic Activity of Compounds at the Human FSH Receptor Expressed in CHO Cells
Antagonistic activity of the compounds at the human FSH receptor was determined in Chinese Hamster Ovary (CHO) cells stably transfected with the human FSH receptor and cotransfected with a cAMP responsive element (CRE)/promotor directing the expression of a firefly luciferase reporter gene. Binding of the compounds to the Gs protein-coupled FSH receptor will result in an increase of cAMP, which in turn will induce an increased transactivation of the luciferase reporter. The cells (7,500 cells/well of a 384 well plate) were incubated in Dulbecco' minimal essential F12 modified medium (Invitrogen), supplemented with 1 μg/ml bovine insulin, 5 μg/ml human apo-transferrin, 100 U/ml penicillin G and 100 μg/ml streptomycin with the test compounds (concentration between 0.316 nM and 10.0 μM) in duplicate together with […] (which, at this concentration in the absence of test compound, induces 80% of the maximal luciferase stimulation) in a humidified atmosphere (95%) at 5-7% CO2 and 37° C. The final concentration of DMSO was 1%. After 4 hours of incubation, plates were allowed to adjust to room temperature for 1 hour. Then, SteadyLite (PerkinElmer) solution was added to the wells and cells were allowed to lyse for at least 1 hour at room temperature. Subsequently, luciferase activity was measured in a luminescence counter. The signal is expressed as counts per second (cps). The IC50 (concentration of test compound causing half-maximal (50%) inhibition of the maximally attainable inhibition of the luciferase stimulation by the compound) and efficacy of the compounds were determined using the software program MathIQ (version 2.3, ID Business Solutions Limited).

**Q.** For `COc1cc2c(cc1OC)-c1c(C)c(C(=O)N[C@@H](CO)Cc3c[nH]c4ccccc34)c(-c3ccccc3)n1CC2` [Example 1, (R)—N-(1-hydroxy-3-(1H-indol-3-yl)propan-2-yl)-8,9-dimethoxy-1-methyl-3-phenyl-5,6-dihydropyrrolo[2,1-a]isoquinoline-2-carboxamide], which IC50 is on record?
**A.** 100 to 1000 nM

**Q.** With `COc1cc2c(cc1OC(C)C)-c1cc(C(=O)NC(C)(CO)Cc3c[nH]c4ccccc34)c(-c3cccc(F)c3)n1CC2` (centres unmarked) [Example 2] as the molecule, how does the IC50 read?
**A.** 100 to 1000 nM

**Q.** With `COc1cc2c(cc1OC(C)C)-c1cc(C(=O)NC(CO)C3(c4c[nH]c5ccccc45)CC3)c(-c3cccc(F)c3)n1CC2` (centres unmarked) [Example 3] as the molecule, how does the IC50 read?
**A.** 100 to 1000 nM

**Q.** How did the IC50 turn out when `COc1cc2c(cc1OC)-c1cc(C(=O)N[C@@H](CO)Cc3c[nH]c4ccccc34)c(-c3cc(C)cc(C)c3)n1CC2` [Example 4, (R)-3-(3,5-dimethylphenyl)-N-(1-hydroxy-3-(1H-indol-3-yl)propan-2-yl)-8,9-dimethoxy-5,6-dihydropyrrolo[2,1-a]isoquinoline-2-carboxamide] was run?
**A.** 100 to 1000 nM

**Q.** `COc1cc2c(cc1OC)-c1cc(C(=O)N[C@@H](CO)Cc3c[nH]c4ccccc34)c(-c3ccccc3)n1CC2` [Example 5, (R)—N-(1-hydroxy-3-(1H-indol-3-yl)propan-2-yl)-8,9-dimethoxy-3-phenyl-5,6-dihydropyrrolo[2,1-a]isoquinoline-2-carboxamide] was tested. Which IC50 did it give?
**A.** < 100 nM

**Q.** `COc1cc2c(cc1OC)-c1cc(C(=O)N[C@@H](CO)Cc3c[nH]c4ccccc34)c(-c3ccc(F)cc3)n1CC2` [Example 6, (R)—N-(1-hydroxy-3-(1H-indol-3-yl)propan-2-yl)-8,9-dimethoxy-3-(4-fluorophenyl)-5,6-dihydropyrrolo[2,1-a]isoquinoline-2-carboxamide] was tested. Which IC50 did it give?
**A.** < 100 nM

**Q.** With `COc1cc2c(cc1OC)-c1cc(C(=O)N[C@@H](CO)Cc3c[nH]c4ccccc34)c(-c3cccs3)n1CC2` [Example 7, (R)—N-(1-hydroxy-3-(1H-indol-3-yl)propan-2-yl)-8,9-dimethoxy-3-(thiophen-2-yl)-5,6-dihydropyrrolo[2,1-a]isoquinoline-2-carboxamide] as the molecule, how does the IC50 read?
**A.** < 100 nM

**Q.** Which IC50 does the source give for `COc1ccc(-c2c(C(=O)N[C@@H](CO)Cc3c[nH]c4ccccc34)cc3n2CCc2cc(OC)c(OC)cc2-3)cc1` [Example 8, (R)—N-(1-hydroxy-3-(1H-indol-3-yl)propan-2-yl)-8,9-dimethoxy-3-(4-methoxyphenyl)-5,6-dihydropyrrolo[2,1-a]isoquinoline-2-carboxamide] here?
**A.** < 100 nM

**Q.** How did the IC50 turn out when `COc1cc2c(cc1OC)-c1cc(C(=O)N[C@@H](CO)Cc3c[nH]c4ccccc34)c(-c3ccc([N+](=O)[O-])cc3)n1CC2` [Example 9, (R)—N-(1-hydroxy-3-(1H-indol-3-yl)propan-2-yl)-8,9-dimethoxy-3-(4-nitrophenyl)-5,6-dihydropyrrolo[2,1-a]isoquinoline-2-carboxamide] was run?
**A.** 100 to 1000 nM

**Q.** Which IC50 does the source give for `COc1cc2c(cc1OC)-c1cc(C(=O)N[C@@H](CO)Cc3c[nH]c4ccccc34)c(-c3cccc(F)c3)n1CC2` [Example 10, (R)-3-(3-fluorophenyl)-N-(1-hydroxy-3-(1H-indol-3-yl)propan-2-yl)-8,9-dimethoxy-5,6-dihydropyrrolo[2,1-a]isoquinoline-2-carboxamide] here?
**A.** < 100 nM

**Q.** How did the IC50 turn out when `COc1cc2c(cc1OC)-c1cc(C(=O)N[C@@H](CO)Cc3c[nH]c4ccccc34)c(-c3ccccn3)n1CC2` [Example 11] was run?
**A.** < 100 nM

**Q.** Which IC50 does the source give for `COc1cccc(-c2c(C(=O)N[C@@H](CO)Cc3c[nH]c4ccccc34)cc3n2CCc2cc(OC)c(OC)cc2-3)c1` [Example 12, (R)—N-(1-hydroxy-3-(1H-indol-3-yl)propan-2-yl)-8,9-dimethoxy-3-(3-methoxyphenyl)-5,6-dihydropyrrolo[2,1-a]isoquinoline-2-carboxamide] here?
**A.** < 100 nM

**Q.** `COc1cc2c(cc1OC(C)C)-c1cc(C(=O)N[C@@H](CO)Cc3c[nH]c4ccccc34)c(-c3ccc(F)cc3)n1CC2` [Example 13, (R)-3-(4-fluorophenyl)-N-(1-hydroxy-3-(1H-indol-3-yl)propan-2-yl)-9-isopropoxy-8-methoxy-5,6-dihydropyrrolo[2,1-a]isoquinoline-2-carboxamide] was tested. Which IC50 did it give?
**A.** < 100 nM

**Q.** How did the IC50 turn out when `COc1cc2c(cc1OC(C)C)-c1cc(C(=O)N[C@@H](CO)Cc3c[nH]c4ccccc34)c(-c3cccc(C)c3)n1CC2` [Example 14, (R)—N-(1-hydroxy-3-(1H-indol-3-yl)propan-2-yl)-9-isopropoxy-8-methoxy-3-m-tolyl-5,6-dihydropyrrolo[2,1-a]isoquinoline-2-carboxamide] was run?
**A.** < 100 nM

**Q.** With `COc1cc2c(cc1OC(C)C)-c1cc(C(=O)N[C@@H](CO)Cc3c[nH]c4ccccc34)c(-c3ccc(N)nc3)n1CC2` [Example 15, (R)-3-(6-aminopyridin-3-yl)-N-(1-hydroxy-3-(1H-indol-3-yl)propan-2-yl)-9-isopropoxy-8-methoxy-5,6-dihydropyrrolo[2,1-a]isoquinoline-2-carboxamide] as the molecule, how does the IC50 read?
**A.** 100 to 1000 nM

**Q.** How did the IC50 turn out when `COc1cc2c(cc1OC(C)C)-c1cc(C(=O)N[C@@H](CO)Cc3c[nH]c4ccccc34)c(-c3cccc(Cl)c3)n1CC2` [Example 16, (R)-3-(3-chlorophenyl)-N-(1-hydroxy-3-(1H-indol-3-yl)propan-2-yl)-9-isopropoxy-8-methoxy-5,6-dihydropyrrolo[2,1-a]isoquinoline-2-carboxamide] was run?
**A.** < 100 nM

**Q.** How did the IC50 turn out when `COc1cc2c(cc1OC(C)C)-c1cc(C(=O)N[C@@H](CO)Cc3c[nH]c4ccccc34)c(-c3ccccc3F)n1CC2` [Example 18, 3-(2-fluorophenyl)-N—((R)-1-hydroxy-3-(1H-indol-3-yl)propan-2-yl)-9-isopropoxy-8-methoxy-5,6-dihydropyrrolo[2,1-a]isoquinoline-2-carboxamide] was run?
**A.** < 100 nM

**Q.** `COc1cc2c(cc1OC(C)C)-c1cc(C(=O)N[C@@H](CO)Cc3c[nH]c4ccccc34)c(-c3ccco3)n1CC2` [Example 19, (R)-3-(furan-2-yl)-N-(1-hydroxy-3-(1H-indol-3-yl)propan-2-yl)-9-isopropoxy-8-methoxy-5,6-dihydropyrrolo[2,1-a]isoquinoline-2-carboxamide] was tested. Which IC50 did it give?
**A.** < 100 nM

**Q.** How did the IC50 turn out when `COc1cc2c(cc1OC(C)C)-c1cc(C(=O)N[C@@H](CO)Cc3c[nH]c4ccccc34)c(CC(C)C)n1CC2` [Example 22, (R)—N-(1-hydroxy-3-(1H-indol-3-yl)propan-2-yl)-3-isobutyl-9-isopropoxy-8-methoxy-5,6-dihydropyrrolo[2,1-a]isoquinoline-2-carboxamide] was run?
**A.** < 100 nM

**Q.** `COc1cc2c(cc1OC(C)C)-c1cc(C(=O)N[C@@H](CO)Cc3c[nH]c4ccccc34)c(C=C(C)C)n1CC2` [Example 23, (R)—N-(1-hydroxy-3-(1H-indol-3-yl)propan-2-yl)-9-isopropoxy-8-methoxy-3-(2-methylprop-1-enyl)-5,6-dihydropyrrolo[2,1-a]isoquinoline-2-carboxamide] was tested. Which IC50 did it give?
**A.** < 100 nM

**Q.** Which IC50 does the source give for `COc1cc2c(cc1OC(C)C)-c1cc(C(=O)N[C@@H](CO)Cc3c[nH]c4ccccc34)c(C(=O)C(C)C)n1CC2` [Example 24, (R)—N-(1-hydroxy-3-(1H-indol-3-yl)propan-2-yl)-3-isobutyryl-9-isopropoxy-8-methoxy-5,6-dihydropyrrolo[2,1-a]isoquinoline-2-carboxamide] here?
**A.** < 100 nM

**Q.** `COc1cc2c(cc1OC(C)C)-c1cc(C(=O)N[C@@H](CO)Cc3c[nH]c4ccccc34)c(C(=O)C(C)(C)C)n1CC2` [Example 25, (R)—N-(1-hydroxy-3-(1H-indol-3-yl)propan-2-yl)-9-isopropoxy-8-methoxy-3-pivaloyl-5,6-dihydropyrrolo[2,1-a]isoquinoline-2-carboxamide] was tested. Which IC50 did it give?
**A.** < 100 nM

**Q.** For `CCCC(=O)c1c(C(=O)N[C@@H](CO)Cc2c[nH]c3ccccc23)cc2n1CCc1cc(OC)c(OC(C)C)cc1-2` [Example 26, (R)-3-butyryl-N-(1-hydroxy-3-(1H-indol-3-yl)propan-2-yl)-9-isopropoxy-8-methoxy-5,6-dihydropyrrolo[2,1-a]isoquinoline-2-carboxamide], which IC50 is on record?
**A.** < 100 nM
